One assay relates to H-59 cells. The experiment in a line: IGF-I induced thymidine incorporation with E-64, H-59. Type of assay: cell-based, murine.
The subject of the next assay is MCF-7 cells. The experiment in a line: IGF-I induced thymidine incorporation with E-64, MCF-7. Type of assay: cell-based, human.
For another assay, the system named is MMP-2. The experiment in a line: IGF-1-mediated induction of MMP-2 synthesis (Northern, Western, zymography). Type of assay: cell-based, murine. The text has this:
This medium was replenished on alternate days for 12 days. […] Blots were probed with a 1:500 dilution of mAb Ab-45 to MMP-2 and an alkaline phosphatase conjugated affinity purified, goat anti rabbit IgG, diluted 1:2000. For Northern blotting, a ^32P-labeled 1.1-Kb human MMP-2 and an 800-bp rat cyclophilin cDNA fragment were used as hybridization probes.

Assay [1] has as its system endosomal IGF-I proteolysis. The experiment in a line: IGF-1 proteolysis assay, liver endosomal extract. The class given is biochemical, rat. The method, then:
H-59 is a highly metastatic subline of the Lewis lung carcinoma with metastatic predilection for the liver, (Brodt et al 1986). Human breast carcinoma cell line MCF-7 was a gift from Dr. Mader (Dept of Biochemistry, University of Montreal, PQ, Canada). Endosomal fractions were prepared from livers of male Sprague-Dawley rats after an 18 h period of fasting. The livers were homogenized and the endosomal fractions isolated by discontinuous sucrose gradient centrifugation and collected at the 0.25 M to 1.0 M sucrose interface (20, 21, 24). The soluble extract (ENs) from the endosomal fractions was isolated by freeze/thawing in 5 mM Na-phosphate pH 7.4, and disrupted in the same hypotonic medium using a small Dounce homogenizer (15 strokes with the tight Type A pestle) followed by centrifugation at 300,000×gav for 30 min as described previously (20, 21, 24).
These preparations were incubated for various lengths of time at 37° C. with 10-^6 M unlabeled or 50,000 cpm [^125I]-labeled IGF-1 in 200 or 400 μl of 50 mM citrate-phosphate pH 5, respectively. The integrity of the radiolabeled ligand was assessed by precipitation with 10% trichloroacetic acid (Authier et al, 1995). […] Eluates were monitored on-line for absorbance at 214 nm with a LC spectrophotometer.

Assay [2] has as its system IGF-I proteolysis in H-59 and MCF-7 cell lysates. The experiment in a line: IGF-1 proteolysis assay, tumor cell lysates. The class given is biochemical. The method, then: These preparations were incubated for various lengths of time at 37° C. with 10-^6 M unlabeled or 50,000 cpm [^125I]-labeled IGF-1 in 200 or 400 μl of 50 mM citrate-phosphate pH 5, respectively. The integrity of the radiolabeled ligand was assessed by precipitation with 10% trichloroacetic acid (Authier et al, 1995). To measure proteolysis of the unlabeled IGF-1, the samples were acidified with acetic acid (15%) and immediately loaded onto a reverse-phase HPLC column. Reverse-phase HPLC was performed on a Waters model 600 liquid chromatograph equipped with a model U6K sample injector fitted with a […] and a mBondapak C18 column (Waters, 0.39×30 cm, […]). Samples were chromatographed using as eluent a mixture of 0.1% TFA in water (solvent A) and 0.1% TFA in acetonitrile (solvent B) with a flow rate of 1 ml/min. Elution was carried out using two sequential linear gradients followed by an isocratic elution: an initial gradient of 0-20% solvent B (30 min); a second gradient of 20-39% solvent B (15 min); and a third isocratic elution of 39% solvent B (15 min). Eluates were monitored on-line for absorbance at 214 nm with a LC spectrophotometer.

Assay [3] has as its system IGF-I binding sites on H-59 cells. Kind of assay: Ligand-binding assay of cell surface IGF-1 receptors, H-59. Set-up: species or system murine. The method, then:
(§1) The ligand-binding assay and fluorocytometry were used to measure cell surface IGF-1 receptors on the murine H-59 and human MCF-7 cells, respectively. […] Incubation was for 1 h at 37° C. following which the cells were rinsed and lysed in 0.01 N NaOH containing 0.1% Triton X-100 and 0.1% SDS and the radioactivity measured. The number of cells/plate at the time of the assay was determined from triplicate control wells which were manipulated in a similar manner. The Ligand program (27, 28) was used to calculate the number of IGF-1 binding sites per cell. IGF-1 receptors on MCF-7 cells were immunofluorescence labeled using 5 μg/ml mAb αIR3 and an FITC-conjugated goat anti-mouse IgG (diluted 1:50). […] Labeled cells were fixed in PBS containing 1% formalin and analyzed using a FACS Calibur System (Becton-Dickinson, San Jose, Calif.).

The next assay concerns human IGF-I receptor. Kind of assay: Fluorocytometry of cell surface IGF-1 receptors with mAb αIR3, MCF-7. The class given is cell-based. How it is done:
as §1

For another assay, the system named is IGF-IR. Kind of assay: IGF-IR mRNA and total immunoprecipitable receptor levels. The conditions noted are these: H-59 and MCF-7. The class given is cell-based. How it is done: (§2) Cells were then washed with PBS, solubilized in 30 mM Hepes pH 7.4, 150 mM NaCl, 1% Triton X-100, and spun at maximal speed in a microfuge for 15 min. Cell lysates (1 to 3 mg) were then immunoprecipitated respectively with anti-Shc, anti-IRS-1 or anti-IGF-IR antibodies overnight at 4° C. Immunoprecipitates were collected by addition of Protein A-Sepharose beads, washed three times with lysis buffer and resuspended finally in Laemmli sample buffer (Long et al 1986a). Immunoprecipitates were resolved by SDS-PAGE and transferred onto nitrocellulose membranes followed by immunoblotting with anti-phosphotyrosine antibodies or with antibodies to IRS-1, Shc or IGF-1R followed by HRP—conjugated goat anti-mouse or goat anti-rabbit IgG antibodies.

Assay [4] relates to IGF-IR β subunit and substrates. The experiment in a line: Immunoprecipitation and anti-phosphotyrosine Western blot, H-59. The class given is cell-based, murine. The method, then:
as §2

For assay [5] the test system is unchanged. The experiment in a line: Immunoprecipitation and anti-phosphotyrosine Western blot, MCF-7. The class given is cell-based, human. The method, then:
as §2

The next assay deals with H-59 tumor cells. The following applies: in vivo; cited from earlier work.

`CC(C)C[C@H](NC(=O)[C@H]1O[C@@H]1C(=O)O)C(=O)NCCCCN=C(N)N` (relative stereo) [E-64, trans-epoxysuccinyl-L-leucylamido (4-guanidino)-butane]: the “incorporation of 3H-thymidine in response to IGF-I” value with H-59 cells (H-59) and in the assay on MCF-7 cells (MCF-7) was “completely abrogated” each time. Also, the IGF-I induced proliferation result is recorded as “abolished” in the assay on H-59 cells (H-59, E-64 10 μg/ml) and “abolished” in the assay with MCF-7 cells (MCF-7, E-64 10 μg/ml). For the same molecule, the “reduction of MMP-2 mRNA synthesis” value in the assay with MMP-2 (H-59, E-64 10 μg/ml) turned out to be 2 fold. For the same molecule, the “MMP-2 production and activity” value in the assay on MMP-2 (Western blotting and gelatin zymography, E-64 10 μg/ml) is “decreased MMP-2 production and activity”. Besides, the “increase in TCA-soluble radioactivity over time (IGF-I proteolysis)” value in [1] (endosomal fractions, radioiodinated IGF-I, 1 hr) is given as “completely abolished”; in [2] (cell lysates, radioiodinated IGF-I, 1 hr), “completely abolished”. For the same molecule, the “IGF-I degradation products by reverse phase HPLC” value is “absent following E-64 treatment” in assay [1] (liver parenchymal endosomal fractions, acidic pH) and “absent following E-64 treatment” in assay [2] (lysates of E-64-treated tumor cells, acidic pH). The “number of IGF-I binding sites” value in assay [3] (H-59, E-64 treated (untreated 3.9×10^5)) was 1.8×10^5 sites/cell. The “reduction of the number of IGF-I binding sites” value in assay [3] (H-59, E-64 treated vs untreated) is given as “more than 2 fold”. Moreover, the “reduction in the number of immunolabeled cells” value in the assay with human IGF-I receptor (MCF-7, 40 min after addition of ligand) worked out at 45%. In the assay on human IGF-I receptor (MCF-7, 40 min after addition of ligand (declining from 255)), the “mean intensity of fluorescence” value was determined as 82. Further, the “IGF-IR mRNA levels” value in the assay with IGF-IR is reported as “In neither of these cell types did E-64 treatment cause a reduction”. Also, the “ligand-induced tyrosine phosphorylation of p52shc” value in assay [4] was “increase”. Moreover, the “tyrosine phosphorylated IRS-1” value in assay [5] is recorded as “increase”. The “liver colonization by H-59 tumor cells” value in the assay with H-59 tumor cells is given as “inhibited liver colonization”.

Source of the values: patent US20030031658A1, “Targeting of endosomal growth factor processing as anti-cancer therapy” (priority 1999, published 2003).
